In the supplement of paper PMC10307832:

Legend:
Experiment in all cases: relative viability (nuclei count vs DMSO), 5 days (fraction); higher = more cells survive
5-Fluorouracil = compound: O=c1[nH]cc(F)c(=O)[nH]1 [5-Fluorouracil]
Summary of the method: (§1)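 On vehicle-anchored 1536-well plates, lung cancer cell lines held overnight at 37 °C were pinned with five library-drug doses (not always all listed) spaced by √10. With no medium change over 5 days, they were then fixed, permeabilised and Hoechst-stained in one step and imaged at 4×. MetaXpress counted nuclei, and viability is the median across plates of treated-well over vehicle-well nuclei. Acceptance needed control CV below 25% and at least one doubling.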

Sulindac = compound: CC1=C(CC(=O)O)c2cc(F)ccc2/C1=C\c1ccc([S+](C)[O-])cc1 [Sulindac]
Summary of the method: as §1

Staurosporine = compound: CN[C@@H]1C[C@H]2O[C@@](C)([C@@H]1OC)n1c3ccccc3c3c4c(c5c6ccccc6n2c5c31)C(=O)NC4 [Staurosporine]
Summary of the method: as §1

Sulindac + Trametinib = compound: CC1=C(CC(=O)O)c2cc(F)ccc2/C1=C\c1ccc([S+](C)[O-])cc1 [Sulindac] + CC(=O)Nc1cccc(-n2c(=O)n(C3CC3)c(=O)c3c(Nc4ccc(I)cc4F)n(C)c(=O)c(C)c32)c1 [Trametinib] (partner 0.02 µM)
Summary of the method: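 Relative viability divides the nuclei count in treated wells by that in vehicle wells. Lung cancer cell lines were seeded in 1536-well plates, dosed by pin tool the next day, and fixed and stained after 5 days in one step with final 0.05% Triton X-100, 1% formaldehyde and 1 ug/ml Hoechst. Dosing was a single drug or a fixed anchor-drug dose plus five library-drug doses (not always all listed) in √10 steps, and values are medians of duplicate plates imaged at 4×.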

EMC-BAC-2
relative viability (5-Fluorouracil; 0.02 µM): 1.07 | relative viability (5-Fluorouracil; 0.2 µM): 1.06 | relative viability (5-Fluorouracil; 0.6325 µM): 1.03 | relative viability (5-Fluorouracil; 2 µM): 0.924 | relative viability (Sulindac; 0.08 µM): 1.09 | relative viability (Sulindac; 0.253 µM): 0.976 | relative viability (Sulindac; 0.8 µM): 0.869 | relative viability (Sulindac; 2.53 µM): 0.968 | relative viability (Sulindac; 8 µM): 1.19 | relative viability (Staurosporine; 0.005 µM): 0.437 | relative viability (Staurosporine; 0.01581 µM): 0.213 | relative viability (Staurosporine; 0.05 µM): 0.222 | relative viability (Staurosporine; 0.1581 µM): 0.21 | relative viability (Staurosporine; 0.5 µM): 0.259 | relative viability (Sulindac + Trametinib; first compound 0.08 µM): 1.03 | relative viability (Sulindac + Trametinib; first compound 0.253 µM): 0.917 | relative viability (Sulindac + Trametinib; first compound 0.8 µM): 0.794 | relative viability (Sulindac + Trametinib; first compound 2.53 µM): 0.794 | relative viability (Sulindac + Trametinib; first compound 8 µM): 0.994

LCLC-103H
relative viability (5-Fluorouracil; 0.02 µM): 1.05 | relative viability (5-Fluorouracil; 0.2 µM): 0.976 | relative viability (5-Fluorouracil; 0.6325 µM): 0.889 | relative viability (5-Fluorouracil; 2 µM): 0.577 | relative viability (Sulindac; 0.08 µM): 1.08 | relative viability (Sulindac; 0.253 µM): 1.09 | relative viability (Sulindac; 0.8 µM): 0.902 | relative viability (Sulindac; 2.53 µM): 0.955 | relative viability (Sulindac; 8 µM): 1.06 | relative viability (Staurosporine; 0.005 µM): 0.973 | relative viability (Staurosporine; 0.01581 µM): 0.336 | relative viability (Staurosporine; 0.05 µM): 0.393 | relative viability (Staurosporine; 0.1581 µM): 0.233 | relative viability (Staurosporine; 0.5 µM): 0.234 | relative viability (Sulindac + Trametinib; first compound 0.08 µM): 0.715 | relative viability (Sulindac + Trametinib; first compound 0.253 µM): 0.722 | relative viability (Sulindac + Trametinib; first compound 0.8 µM): 0.692 | relative viability (Sulindac + Trametinib; first compound 2.53 µM): 0.67 | relative viability (Sulindac + Trametinib; first compound 8 µM): 0.694

LK-2
relative viability (5-Fluorouracil; 0.02 µM): 1.16 | relative viability (5-Fluorouracil; 0.2 µM): 0.989 | relative viability (5-Fluorouracil; 0.6325 µM): 0.8 | relative viability (5-Fluorouracil; 2 µM): 0.574 | relative viability (Sulindac; 0.08 µM): 1.23 | relative viability (Sulindac; 0.253 µM): 1.06 | relative viability (Sulindac; 0.8 µM): 0.78 | relative viability (Sulindac; 2.53 µM): 0.738 | relative viability (Sulindac; 8 µM): 1.21 | relative viability (Staurosporine; 0.005 µM): 1.17 | relative viability (Staurosporine; 0.01581 µM): 1.06 | relative viability (Staurosporine; 0.05 µM): 0.874 | relative viability (Staurosporine; 0.1581 µM): 0.366 | relative viability (Staurosporine; 0.5 µM): 0.243 | relative viability (Sulindac + Trametinib; first compound 0.08 µM): 0.854 | relative viability (Sulindac + Trametinib; first compound 0.253 µM): 0.746 | relative viability (Sulindac + Trametinib; first compound 0.8 µM): 0.705 | relative viability (Sulindac + Trametinib; first compound 2.53 µM): 0.617 | relative viability (Sulindac + Trametinib; first compound 8 µM): 0.944

NCI-H460
relative viability (5-Fluorouracil; 0.02 µM): 0.99 | relative viability (5-Fluorouracil; 0.2 µM): 0.72 | relative viability (5-Fluorouracil; 0.6325 µM): 0.165 | relative viability (5-Fluorouracil; 2 µM): 0.0713 | relative viability (Sulindac; 0.08 µM): 1.29 | relative viability (Sulindac; 0.253 µM): 1.06 | relative viability (Sulindac; 0.8 µM): 0.906 | relative viability (Sulindac; 2.53 µM): 0.976 | relative viability (Sulindac; 8 µM): 1.06 | relative viability (Staurosporine; 0.005 µM): 0.963 | relative viability (Staurosporine; 0.01581 µM): 0.762 | relative viability (Staurosporine; 0.05 µM): 0.824 | relative viability (Staurosporine; 0.1581 µM): 0.0553 | relative viability (Staurosporine; 0.5 µM): 0.0329 | relative viability (Sulindac + Trametinib; first compound 0.08 µM): 0.178 | relative viability (Sulindac + Trametinib; first compound 0.253 µM): 0.195 | relative viability (Sulindac + Trametinib; first compound 0.8 µM): 0.114 | relative viability (Sulindac + Trametinib; first compound 2.53 µM): 0.366 | relative viability (Sulindac + Trametinib; first compound 8 µM): 0.132

NCI-H3122
relative viability (5-Fluorouracil; 0.02 µM): 1 | relative viability (5-Fluorouracil; 0.2 µM): 0.848 | relative viability (5-Fluorouracil; 0.6325 µM): 0.39 | relative viability (5-Fluorouracil; 2 µM): 0.241 | relative viability (Sulindac; 0.08 µM): 1.04 | relative viability (Sulindac; 0.253 µM): 1.03 | relative viability (Sulindac; 0.8 µM): 0.949 | relative viability (Sulindac; 2.53 µM): 0.962 | relative viability (Sulindac; 8 µM): 1.08 | relative viability (Staurosporine; 0.005 µM): 1.04 | relative viability (Staurosporine; 0.05 µM): 0.893 | relative viability (Staurosporine; 0.1581 µM): 0.255 | relative viability (Staurosporine; 0.5 µM): 0.357 | relative viability (Sulindac + Trametinib; first compound 0.08 µM): 0.222 | relative viability (Sulindac + Trametinib; first compound 0.253 µM): 0.243 | relative viability (Sulindac + Trametinib; first compound 0.8 µM): 0.203 | relative viability (Sulindac + Trametinib; first compound 2.53 µM): 0.214 | relative viability (Sulindac + Trametinib; first compound 8 µM): 0.267

NCI-H2126
relative viability (5-Fluorouracil; 0.02 µM): 0.915 | relative viability (5-Fluorouracil; 0.2 µM): 0.532 | relative viability (5-Fluorouracil; 0.6325 µM): 0.356 | relative viability (5-Fluorouracil; 2 µM): 0.351 | relative viability (Sulindac; 0.08 µM): 0.975 | relative viability (Sulindac; 0.253 µM): 1.01 | relative viability (Sulindac; 0.8 µM): 0.842 | relative viability (Sulindac; 2.53 µM): 1.03 | relative viability (Sulindac; 8 µM): 1.05 | relative viability (Staurosporine; 0.005 µM): 0.875 | relative viability (Staurosporine; 0.01581 µM): 0.397 | relative viability (Staurosporine; 0.05 µM): 0.582 | relative viability (Staurosporine; 0.1581 µM): 0.391 | relative viability (Staurosporine; 0.5 µM): 0.303 | relative viability (Sulindac + Trametinib; first compound 0.08 µM): 0.674 | relative viability (Sulindac + Trametinib; first compound 0.253 µM): 0.568 | relative viability (Sulindac + Trametinib; first compound 0.8 µM): 0.553 | relative viability (Sulindac + Trametinib; first compound 2.53 µM): 0.51 | relative viability (Sulindac + Trametinib; first compound 8 µM): 0.619

NCI-H596
relative viability (5-Fluorouracil; 0.02 µM): 1.01 | relative viability (5-Fluorouracil; 0.2 µM): 0.981 | relative viability (5-Fluorouracil; 0.6325 µM): 0.718 | relative viability (5-Fluorouracil; 2 µM): 0.439 | relative viability (Sulindac; 0.08 µM): 0.975 | relative viability (Sulindac; 0.253 µM): 1.03 | relative viability (Sulindac; 0.8 µM): 0.846 | relative viability (Sulindac; 2.53 µM): 1.02 | relative viability (Sulindac; 8 µM): 1.04 | relative viability (Staurosporine; 0.01581 µM): 0.54 | relative viability (Staurosporine; 0.05 µM): 0.792 | relative viability (Staurosporine; 0.1581 µM): 0.204 | relative viability (Staurosporine; 0.5 µM): 0.151 | relative viability (Sulindac + Trametinib; first compound 0.08 µM): 0.892 | relative viability (Sulindac + Trametinib; first compound 0.253 µM): 0.827 | relative viability (Sulindac + Trametinib; first compound 2.53 µM): 0.981 | relative viability (Sulindac + Trametinib; first compound 8 µM): 0.875

LOU-NH91
relative viability (5-Fluorouracil; 0.02 µM): 0.99 | relative viability (5-Fluorouracil; 0.2 µM): 1.1 | relative viability (5-Fluorouracil; 0.6325 µM): 0.734 | relative viability (5-Fluorouracil; 2 µM): 0.39 | relative viability (Sulindac; 0.08 µM): 0.989 | relative viability (Sulindac; 0.253 µM): 0.982 | relative viability (Sulindac; 0.8 µM): 0.944 | relative viability (Sulindac; 2.53 µM): 0.922 | relative viability (Sulindac; 8 µM): 1.11 | relative viability (Staurosporine; 0.005 µM): 0.921 | relative viability (Staurosporine; 0.01581 µM): 0.603 | relative viability (Staurosporine; 0.05 µM): 0.613 | relative viability (Staurosporine; 0.1581 µM): 0.294 | relative viability (Staurosporine; 0.5 µM): 0.275 | relative viability (Sulindac + Trametinib; first compound 0.08 µM): 0.771 | relative viability (Sulindac + Trametinib; first compound 0.253 µM): 0.826 | relative viability (Sulindac + Trametinib; first compound 0.8 µM): 0.687 | relative viability (Sulindac + Trametinib; first compound 2.53 µM): 0.785 | relative viability (Sulindac + Trametinib; first compound 8 µM): 0.836

NCI-H1651
relative viability (5-Fluorouracil; 0.02 µM): 1.04 | relative viability (5-Fluorouracil; 0.2 µM): 0.896 | relative viability (5-Fluorouracil; 0.6325 µM): 0.504 | relative viability (5-Fluorouracil; 2 µM): 0.458 | relative viability (Sulindac; 0.08 µM): 1.04 | relative viability (Sulindac; 0.253 µM): 1.04 | relative viability (Sulindac; 0.8 µM): 0.771 | relative viability (Sulindac; 2.53 µM): 1.01 | relative viability (Sulindac; 8 µM): 1.02 | relative viability (Staurosporine; 0.005 µM): 1.02 | relative viability (Staurosporine; 0.01581 µM): 0.751 | relative viability (Staurosporine; 0.05 µM): 0.548 | relative viability (Staurosporine; 0.1581 µM): 0.357 | relative viability (Staurosporine; 0.5 µM): 0.285 | relative viability (Sulindac + Trametinib; first compound 0.08 µM): 0.797 | relative viability (Sulindac + Trametinib; first compound 0.253 µM): 0.844 | relative viability (Sulindac + Trametinib; first compound 0.8 µM): 0.733 | relative viability (Sulindac + Trametinib; first compound 2.53 µM): 0.801 | relative viability (Sulindac + Trametinib; first compound 8 µM): 0.845

NCI-H520
relative viability (5-Fluorouracil; 0.02 µM): 0.923 | relative viability (5-Fluorouracil; 0.2 µM): 1.06 | relative viability (5-Fluorouracil; 0.6325 µM): 0.73 | relative viability (5-Fluorouracil; 2 µM): 0.516 | relative viability (Sulindac; 0.08 µM): 1.16 | relative viability (Sulindac; 0.253 µM): 1.08 | relative viability (Sulindac; 0.8 µM): 0.891 | relative viability (Sulindac; 2.53 µM): 0.957 | relative viability (Sulindac; 8 µM): 1.06 | relative viability (Staurosporine; 0.005 µM): 1.14 | relative viability (Staurosporine; 0.01581 µM): 0.706 | relative viability (Staurosporine; 0.05 µM): 0.698 | relative viability (Staurosporine; 0.1581 µM): 0.272 | relative viability (Staurosporine; 0.5 µM): 0.163 | relative viability (Sulindac + Trametinib; first compound 0.08 µM): 0.787 | relative viability (Sulindac + Trametinib; first compound 0.253 µM): 0.707 | relative viability (Sulindac + Trametinib; first compound 0.8 µM): 0.642 | relative viability (Sulindac + Trametinib; first compound 2.53 µM): 0.691 | relative viability (Sulindac + Trametinib; first compound 8 µM): 0.699
